The conditions of data set [1]: cited from earlier work.
The nature of data set [2]: Plasma pharmacokinetics study in mice (non-compartmental analysis, HPLC-DAD). The data set is classed as in vivo, Balb/c mice. Particulars: mean ± SD; for k el: read-out: ke (converted). As to the method: The pharmacokinetic analysis was carried out with Balb/c mice (~30 g) obtained from the Animal Facilities at Oswaldo Cruz Foundation (Fiocruz, Bahia, Brazil) and kept in a room with environmental control (22 ± 2 °C and 12:12 h light–dark cycle), and with free access to water and food until the day of the experiment. Animal care and handling procedures were in strict accordance with the recommendations in the Guide for the Care and Use of Laboratory Animals of the National Institute of Health and the Brazilian College of Animal Experimentation. The protocol was approved by the Institutional Animal Care and Use Committee of FIOCRUZ (CEUA/FIOCRUZ, permit number: L-IGM-013/2021).
The compound was administered to the mice (n = 3 per time point) by inhalation and intravenous routes at 50 and 15 mg/kg, respectively. The intravenous administration was conducted through the lateral tail vein, and the inhalation dosing was conducted using inhalation exposure chambers. The nebulizer device was operated according to the manufacturer’s specifications. The blood samples were collected 0.083, 0.25, 0.5, 0.75, 1, 2, and 4 h after both administrations. The blood samples were centrifuged for plasma separation (6000 rpm, 10 min, 8 °C) and stored at −18 °C until analysis.
The non-compartmental pharmacokinetic parameters of both studies were estimated using PKanalix® Suite 2020R1 software (Lixoft®, Antony, France). The determined PK parameters included the elimination rate constant (ke), the elimination half-life (t1/2), the area under the concentration–time curve (AUC) calculated by the linear trapezoidal rule, the mean residence time (MRT), the total clearance (CL), and the volume of distribution (Vd).

The subject of data set [3] is arteries isolated from rats. Set-up: method as in PMID 31711783, PMID 37149230. The following applies: cited from earlier work.
Data set [4] can be described thus: Long-term stability in mice plasma stored at −18 °C. It is filed as in vitro ADME. As to the method:
Stability assays were performed in triplicate with the QC samples (LQC and HQC) by adding 6-methoxyseselin to mice plasma. The stability after 30, 45, and 60 days was performed with samples stored at −18 °C. 6-methoxyseselin was considered stable in plasma for the period evaluated when the accuracy was within acceptable limits (RSE within ±15%).

The nature of data set [5]: Lung distribution in mice (AUC lung/AUC plasma ratio). The data set is classed as in vivo. Particulars: male, Balb/c, mouse, read-out: Lung penetration factor (AUC inf lung/AUC inf plasma). How it is done: The lung distribution experiment used Male Balb/c (~30 g). After intravenous bolus and inhalation administration of 15 mg/kg and 50 mg/kg, respectively, of 6-methoxyseselin, three animals were sacrificed at 0.5 h, 1 h, 2 h, and 4 h, each. The lung samples were removed, gently blotted dry, weighed, and frozen at −80 °C until processing. On the day of the analysis, tissue samples were allowed to thaw and were weighed, and 2 mL of methanol was added per gram of tissue. The tissues were homogenized for approximately 5 min, and the homogenates were then transferred to Eppendorf® tubes and centrifuged at 3500× g for 15 min at 4 °C. A volume of supernatant was then processed similarly to the plasma samples and analyzed by HPLC-DAD. The lung penetration was calculated using the AUC lung/AUC plasma ratio. The trapezoidal method was used to estimate both AUCs.

Setting [6] is: Balb/c, mouse, inhaled or intranasal, inhalation 50 mg/kg.
Where [7] appears, read: Balb/c, mouse, intravenous 15 mg/kg.

What is called half-life is how long it takes for the measured level to halve. Broadly, the MRT is the average time that molecules of a dose stay in the body. Usually clearance stands for the volume of plasma or blood freed of the substance per unit of time. High values mean a high capacity for elimination, low ones a low capacity for elimination.

Like-named read-outs stand apart in the source and are kept apart here.

As to `CCCC1O[C@@H]2C[C@H]3[C@@H]4CCC5=CC(=O)C=C[C@]5(C)[C@H]4[C@@H](O)C[C@]3(C)[C@]2(C(=O)CO)O1` (stereo partly drawn) [budesonide], the half-life in data set [1] is 2 to 3.6 h. The Vd in data set [1] (reference not given, ref 22 follows in the same paragraph) is 2.2 to 3.9 L/kg.
For `COc1cc2ccc(=O)oc2c2c1OC(C)(C)C=C2` [6-methoxyseselin], the MRT is 5.4 ± 2.1 h in data set [2] (setting [6]) and 3.23 ± 1.57 h in data set [2] (setting [7]). In addition, the half-life in data set [2] (setting [6]) is 3.3 ± 0.86 h; in data set [2] (setting [7]), 2.6 ± 0.73 h. Besides, the k el in data set [2] (setting [6]) is 5.83e-05 s⁻¹; in data set [2] (setting [7]), 7.5e-05 s⁻¹. Further, the clearance in data set [2] (setting [7]) is 88.7 mL/min/kg. Also, the Vd in data set [2] (Balb/c, mouse, intravenous 15 mg/kg, read-out: Vd) worked out at 19.6 ± 1.57 L/kg; in data set [2] (inhalation 50 mg/kg) it was 18.79 ± 2.58 L/kg. In data set [2] (inhalation 50 mg/kg), this compound registered a Cl of 110 ± 39 mL/min/kg. Also, the Vasorelaxation result in data set [3] is reported as “potent vasorelaxation”. The “Stability in storage (verdict)” value is “unstable” in data set [4] (60 days) and “stable” in data set [4] (until day 30). The Kp in data set [5] (inhaled, inhalation 50 mg/kg) stood at 2.14; in data set [5] (intravenous 15 mg/kg) it was 1.45.
In the case of `CC(C)(C)NCC(O)c1ccc(O)c(CO)c1` (stereo not drawn) [salbutamol], the Vd in data set [1] was 3 to 4 L/kg.
